Data published in publication PMC8011931, “Identification, Structure–Activity Relationship, and Biological Characterization of 2,3,4,5-Tetrahydro-1H-pyrido[4,3-b]indoles as a Novel Class of CFTR Potentiators” (Journal of Medicinal Chemistry, 2020).

Molecular target: F508del-CFTR (Homo sapiens, UniProt P13569, DEL508-508)
Assay: TEER/PD measurements on primary HBE cells from an F508del/F508del CF patient, 24 h co-incubation with corrector
Type: cell-based
Parameters: primary HBE cells from an F508del/F508del CF patient; endogenous in cells; host or cells: primary human bronchial epithelial cells, F508del/F508del CF patient
Settings: 39 0.5 μM with ARN23765 10 nM
Method: A similar combination study was conducted on primary HBE cells from an F508del/F508del CF patient. The effect of the compound was assessed with the transepithelial electrical resistance and potential difference (TEER/PD) technique.[41] Epithelia were treated for 24 h with a vehicle, a corrector ARN23765 alone (10 nM), or ARN23765 (10 nM) plus the potentiator 39 (0.5 μM). TEER and PD values were taken at resting, after the addition of apical amiloride, after maximal stimulation of F508del-CFTR activity (with forskolin plus genistein), and after blocking with PPQ-102. For each epithelium, we measured the difference in the short-circuit current, Ieq (calculated from the TEER and PD values), before and after blocking with PPQ-102 (ΔIeq). The results obtained on primary epithelia confirmed that the rescue of CFTR activity by the corrector ARN23765 was not affected by coincubation with the novel potentiator 39 (Figure 7B).
Primary bronchial epithelial cells were cultured as previously described.[58] In brief, epithelial cells were cultured in a serum-free medium (LHC9 mixed with RPMI 1640, 1:1) supplemented with hormones and supplements to support cell number amplification. […] Differentiation of cells to form a tight epithelium was monitored by measuring transepithelial electrical resistance and potential difference with an epithelial voltohmmeter (EVOM1, World Precision Instruments). […]

Chain of F508del-CFTR (P13569 with tags, fused parts or gaps DEL508-508): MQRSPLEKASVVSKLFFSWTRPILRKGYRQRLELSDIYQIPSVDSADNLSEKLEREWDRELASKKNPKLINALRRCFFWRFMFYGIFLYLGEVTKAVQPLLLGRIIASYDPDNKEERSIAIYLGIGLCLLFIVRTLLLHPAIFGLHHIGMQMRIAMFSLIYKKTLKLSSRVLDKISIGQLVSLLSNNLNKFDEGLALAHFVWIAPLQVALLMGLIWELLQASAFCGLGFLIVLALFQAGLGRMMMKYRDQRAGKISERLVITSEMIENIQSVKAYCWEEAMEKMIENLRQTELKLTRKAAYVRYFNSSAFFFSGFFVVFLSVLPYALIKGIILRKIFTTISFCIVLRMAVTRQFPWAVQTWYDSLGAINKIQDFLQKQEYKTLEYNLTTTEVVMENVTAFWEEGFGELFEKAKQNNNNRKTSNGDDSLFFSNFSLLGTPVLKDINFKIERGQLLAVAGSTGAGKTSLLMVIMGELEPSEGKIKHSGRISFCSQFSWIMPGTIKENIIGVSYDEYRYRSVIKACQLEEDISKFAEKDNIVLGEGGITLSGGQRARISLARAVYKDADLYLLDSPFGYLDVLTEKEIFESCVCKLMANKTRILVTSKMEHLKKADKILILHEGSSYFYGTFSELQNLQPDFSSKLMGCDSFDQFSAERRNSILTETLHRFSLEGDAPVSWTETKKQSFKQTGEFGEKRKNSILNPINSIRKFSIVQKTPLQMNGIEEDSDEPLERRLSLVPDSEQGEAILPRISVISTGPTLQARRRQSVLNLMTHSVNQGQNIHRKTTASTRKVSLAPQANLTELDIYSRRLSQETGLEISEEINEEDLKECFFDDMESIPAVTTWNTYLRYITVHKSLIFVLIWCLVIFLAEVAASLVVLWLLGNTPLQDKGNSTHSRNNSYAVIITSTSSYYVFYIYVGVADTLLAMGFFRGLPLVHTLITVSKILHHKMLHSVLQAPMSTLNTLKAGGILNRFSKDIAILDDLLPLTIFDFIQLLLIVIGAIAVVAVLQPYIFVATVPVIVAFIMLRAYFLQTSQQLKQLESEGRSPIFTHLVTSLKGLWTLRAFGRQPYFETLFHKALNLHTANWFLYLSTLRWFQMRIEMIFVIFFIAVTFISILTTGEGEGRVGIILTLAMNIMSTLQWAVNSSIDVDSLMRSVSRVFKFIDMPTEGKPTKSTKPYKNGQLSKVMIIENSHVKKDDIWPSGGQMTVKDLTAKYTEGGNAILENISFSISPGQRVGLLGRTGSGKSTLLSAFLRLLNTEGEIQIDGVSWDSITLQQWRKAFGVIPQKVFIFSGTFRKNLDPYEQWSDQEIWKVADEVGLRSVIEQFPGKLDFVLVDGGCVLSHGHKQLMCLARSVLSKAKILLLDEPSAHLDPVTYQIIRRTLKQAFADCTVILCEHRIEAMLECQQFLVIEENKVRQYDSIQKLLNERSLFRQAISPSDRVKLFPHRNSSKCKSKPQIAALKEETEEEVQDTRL

SMILES: Cc1ccc(F)c2[nH]c3c(c12)CN(C(=O)c1cc(C(F)(F)F)[nH]n1)[C@H](C)C3 [Compound 39, (R)-(6-Fluoro-3,9-dimethyl-1,3,4,5-tetrahydro-2H-pyrido[4,3-b]indol-2-yl)-(5-(trifluoromethyl)-1H-pyrazol-3-yl)methanone]
- effect on rescue of CFTR activity by the corrector ARN23765 (ΔIeq): not affected
